Measurements as given in patent US20110275630A1, “ISO[…] INHIBITORS” (ABBOTT LABORATORIES, priority 2003, published 2011).

biological target: T1, ROCK 2 (Homo sapiens, UniProt O75116); experiment: ROCK kinase activity assays ([33P]-ATP FlashPlate assay / HTRF assay); type: biochemical
T1 construct: ROCK1 (1.5 nM; Invitrogen) or ROCK2 (0.2 nM; Upstate) catalytic domains; purchased Upstate
Excerpt: [33P]-ATP assay: ROCK activity is initially determined using a radioactive FlashPlate-based assay.

T1 sequence (O75116 92-354 limits assumed, species assumed): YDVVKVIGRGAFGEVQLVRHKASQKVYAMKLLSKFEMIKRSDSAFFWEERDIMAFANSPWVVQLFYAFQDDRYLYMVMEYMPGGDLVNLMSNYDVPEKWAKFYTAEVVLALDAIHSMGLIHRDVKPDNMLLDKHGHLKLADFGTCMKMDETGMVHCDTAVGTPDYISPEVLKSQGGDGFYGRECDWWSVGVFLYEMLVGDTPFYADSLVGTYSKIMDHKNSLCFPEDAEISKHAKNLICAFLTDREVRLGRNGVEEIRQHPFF

Point of comparison: O=C(Nc1ccc(-c2cccc3c2CNC3=O)cc1)c1cccc(S(=O)(=O)N2CCOCC2)c1 [Example 135, 3-(morpholin-4-ylsulfonyl)-N-[4-(1-oxo-2,3-dihydro-1H-isoindol-4-yl)phenyl]benzamide], Ki 8.75 nM. Against it:
- O=C(Nc1ccc(-c2cccc3c2CNC3=O)cc1)c1cc2ccccc2o1 [Example 132, N-[4-(1-oxo-2,3-dihydro-1H-isoindol-4-yl)phenyl]-1-benzofuran-2-carboxamide] — 7.6-fold higher, 66.1 nM
- O=C1NCc2c1cccc2-c1ccc(Nc2nc3ccc(Cl)cc3o2)cc1 [Example 139, 4-{4-[(6-chloro-1,3-benzoxazol-2-yl)amino]phenyl}-2,3-dihydro-1H-isoindol-1-one] — 17-fold higher, 153 nM
- O=C(Nc1ccc(-c2cccc3c2CNC3=O)cc1)c1ccc(N2CCOCC2)nc1 [Example 136, 6-(morpholin-4-yl)-N-[4-(1-oxo-2,3-dihydro-1H-isoindol-4-yl)phenyl]pyridine-3-carboxamide] — 23-fold higher, 201 nM
- NC1CCN(S(=O)(=O)c2cccc(C(=O)Nc3ccc(-c4cccc5c4CNC5=O)cc3)c2)CC1 [Example 137, 3-[(4-aminopiperidin-1-yl)sulfonyl]-N-[4-(1-oxo-2,3-dihydro-1H-isoindol-4-yl)phenyl]benzamide] — within 1.5-fold, 12.8 nM
- O=C(Nc1ccc(-c2cccc3c2CNC3=O)cc1)c1ccc2c(c1)OCCO2 [Example 134, N-[4-(1-oxo-2,3-dihydro-1H-isoindol-4-yl)phenyl]-2,3-dihydro-1,4-benzodioxine-6-carboxamide] — 38-fold higher, 331 nM
- O=C(Nc1ccc(-c2cccc3c2CNC3=O)cc1)c1cc2cc(F)ccc2[nH]1 [Example 131, 5-fluoro-N-[4-(1-oxo-2,3-dihydro-1H-isoindol-4-yl)phenyl]-1H-indole-2-carboxamide] — 3.7-fold higher, 32.6 nM
- O=C(Nc1ccc(-c2cccc3c2CNC3=O)cc1)c1cc2ccccc2[nH]1 [Example 140, N-[4-(1-oxo-2,3-dihydro-1H-isoindol-4-yl)phenyl]-1H-indole-2-carboxamide] — 3.1-fold higher, 27.4 nM
